Results published in the supplement of paper PMC5908809.

Key:
[1] = tested on: normal NK cells expanded with K562-aAPC; assay: percent inhibition of viability; higher = more inhibition; conditions: 72 h, IL-2 2.5 ng/mL
Procedure: (§1)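 Drug sensitivity and resistance testing on K562-aAPC-expanded normal NK cells: 5 concentrations (10-fold steps over a 10,000-fold range), 72 h at 37 °C, viability by CellTiter-Glo normalised to DMSO and benzethonium chloride controls; DSS from the fitted curve.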

DERL-7 (IL-2 2.5 ng/mL) [2] = assay: as above; conditions: 72 h
IMC-1 (IL-2 20 ng/mL) [3] = assay: as above; conditions: 72 h
KAI3 (IL-2 2.5 ng/mL) [4] = assay: as above; conditions: 72 h
KHYG-1 (IL-2 2.5 ng/mL) [5] = assay: as above; conditions: 72 h
NK-92 (IL-2 2.5 ng/mL) [6] = assay: as above; conditions: 72 h
NK-YS (IL-2 2.5 ng/mL) [7] = assay: as above; conditions: 72 h
NKL (IL-2 2.5 ng/mL) [8] = assay: as above; conditions: 72 h
SNK-6 (IL-2 2.5 ng/mL) [9] = assay: as above; conditions: 72 h
YT (IL-2 2.5 ng/mL) [10] = assay: as above; conditions: 72 h
[11] = tested on: normal primary NK cells, pool 1 (3 donors) (IL-2 2.5 ng/mL); assay: as above; conditions: 72 h
[12] = tested on: normal primary NK cells, pool 1 (3 donors), resting (IL-2 0 ng/mL); assay: as above; conditions: 72 h
[13] = tested on: normal primary NK cells, pool 2 (3 donors) (IL-2 2.5 ng/mL); assay: as above; conditions: 72 h
[14] = tested on: normal primary NK cells, pool 3 (3 donors) (IL-2 2.5 ng/mL); assay: as above; conditions: 72 h
[15] = tested on: normal NK cells expanded with K562-aAPC; assay: drug sensitivity score (DSS) (DSS units); higher = more sensitive; extreme values may be limits of the assay; conditions: 72 h; IL-2 2.5 ng/mL
Procedure: as §1

DERL-7 (IL-2 2.5 ng/mL) [16] = assay: as above; conditions: 72 h
IMC-1 (IL-2 20 ng/mL) [17] = assay: as above; conditions: 72 h
KAI3 (IL-2 2.5 ng/mL) [18] = assay: as above; conditions: 72 h
KHYG-1 (IL-2 2.5 ng/mL) [19] = assay: as above; conditions: 72 h
NK-92 (IL-2 2.5 ng/mL) [20] = assay: as above; conditions: 72 h
NK-YS (IL-2 2.5 ng/mL) [21] = assay: as above; conditions: 72 h
NKL (IL-2 2.5 ng/mL) [22] = assay: as above; conditions: 72 h
SNK-6 (IL-2 2.5 ng/mL) [23] = assay: as above; conditions: 72 h
YT (IL-2 2.5 ng/mL) [24] = assay: as above; conditions: 72 h
[25] = tested on: normal primary NK cells, pool 1 (3 donors) (IL-2 2.5 ng/mL); assay: as above; conditions: 72 h
[26] = tested on: normal primary NK cells, pool 1 (3 donors), resting (IL-2 0 ng/mL); assay: as above; conditions: 72 h
[27] = tested on: normal primary NK cells, pool 2 (3 donors) (IL-2 2.5 ng/mL); assay: as above; conditions: 72 h
[28] = tested on: normal primary NK cells, pool 3 (3 donors) (IL-2 2.5 ng/mL); assay: as above; conditions: 72 h

CC1(C)CCC(c2ccc(Cl)cc2)=C(CN2CCN(c3ccc(C(=O)NS(=O)(=O)c4ccc(N[C@H](CCN5CCOCC5)CSc5ccccc5)c(S(=O)(=O)C(F)(F)F)c4)cc3)CC2)C1 [Navitoclax] (max concentration tested 10000 nM)
percent inhibition of viability [%]
Conditions	1 nM	10 nM	100 nM	1000 nM	10000 nM
DERL-7 (IL-2 2.5 ng/mL) [2]	2	1.88	47.8	93	100
IMC-1 (IL-2 20 ng/mL) [3]	-6.88	-0.75	19.6	38.7	79.4
KAI3 (IL-2 2.5 ng/mL) [4]	19.6	80.7	102	104	97.4
KHYG-1 (IL-2 2.5 ng/mL) [5]	-3.19	-1.54	72.7	102	96.3
NK-92 (IL-2 2.5 ng/mL) [6]	-0.38	-1.7	27	83.7	95.2
NK-YS (IL-2 2.5 ng/mL) [7]	0.62	12	56.3	99.3	96.6
NKL (IL-2 2.5 ng/mL) [8]	-5.66	12.4	83.2	101	97.8
SNK-6 (IL-2 2.5 ng/mL) [9]	16.9	69.7	99	99.5	98.8
YT (IL-2 2.5 ng/mL) [10]	2.71	25.2	69.4	77.4	87.6
[1]	-0.31	-4.48	10.3	55	77
[11]	-16.8	-9.66	60	94	99.9
[12]	2.54	48	98.3	100	99.9
[13]	-16.4	3.46	56.9	95.9	99
[14]	-14.4	-12.2	24.6	87.2	95.9

Conditions	drug sensitivity score
DERL-7 (IL-2 2.5 ng/mL) [16]	23
IMC-1 (IL-2 20 ng/mL) [17]	9.91
KAI3 (IL-2 2.5 ng/mL) [18]	42.1
KHYG-1 (IL-2 2.5 ng/mL) [19]	26.3
NK-92 (IL-2 2.5 ng/mL) [20]	18.6
NK-YS (IL-2 2.5 ng/mL) [21]	24.8
NKL (IL-2 2.5 ng/mL) [22]	29.4
SNK-6 (IL-2 2.5 ng/mL) [23]	39.8
YT (IL-2 2.5 ng/mL) [24]	26.4
[15]	11.7
[25]	25.1
[26]	36.1
[27]	24.6
[28]	19.2

COc1nc(N)nc2c1ncn2[C@@H]1O[C@H](CO)[C@@H](O)[C@@H]1O [Nelarabine] (max concentration tested 10000 nM)
percent inhibition of viability [%]
Conditions	1 nM	10 nM	100 nM	1000 nM	10000 nM
DERL-7 (IL-2 2.5 ng/mL) [2]	1.44	7.77	2.31	12.4	46.1
IMC-1 (IL-2 20 ng/mL) [3]	-3.75	-1.52	-5.24	-11.7	-10.4
KAI3 (IL-2 2.5 ng/mL) [4]	15.6	16.4	12.6	25.8	53.3
KHYG-1 (IL-2 2.5 ng/mL) [5]	4.68	-0.73	-1.55	-1.11	27.2
NK-92 (IL-2 2.5 ng/mL) [6]	8.71	-6.85	4.79	8.69	32
NK-YS (IL-2 2.5 ng/mL) [7]	2.42	-3.62	0.15	3.98	14.6
NKL (IL-2 2.5 ng/mL) [8]	5.77	8.18	3.83	10.4	56.7
SNK-6 (IL-2 2.5 ng/mL) [9]	2.48	-13.9	-9.19	-25.6	-2.36
YT (IL-2 2.5 ng/mL) [10]	2.6	-3.18	0.56	1.65	5.92
[1]	0.53	1.13	1.94	15.5	66.8
[11]	-10.4	-4.07	23.9	61.1	92.1
[12]	14.4	22.7	58.9	88.3	91.7
[13]	-2.48	5	21.2	59.8	82.4
[14]	11.4	8.39	27.7	65.5	82.3

Conditions	drug sensitivity score
DERL-7 (IL-2 2.5 ng/mL) [16]	4.29
IMC-1 (IL-2 20 ng/mL) [17]	0
KAI3 (IL-2 2.5 ng/mL) [18]	8.27
KHYG-1 (IL-2 2.5 ng/mL) [19]	1.02
NK-92 (IL-2 2.5 ng/mL) [20]	2.5
NK-YS (IL-2 2.5 ng/mL) [21]	0.54
NKL (IL-2 2.5 ng/mL) [22]	4.79
SNK-6 (IL-2 2.5 ng/mL) [23]	0
YT (IL-2 2.5 ng/mL) [24]	0
[15]	6.13
[25]	14.4
[26]	25.3
[27]	13.8
[28]	15.7

CC1(C)NC(=O)N(c2ccc([N+](=O)[O-])c(C(F)(F)F)c2)C1=O [Nilutamide] (max concentration tested 10000 nM)
percent inhibition of viability [%]
Conditions	1 nM	10 nM	100 nM	1000 nM	10000 nM
DERL-7 (IL-2 2.5 ng/mL) [2]	-0.2	-1.34	3.47	-0.03	1.75
IMC-1 (IL-2 20 ng/mL) [3]	0	-0.12	2.93	3	40.4
KAI3 (IL-2 2.5 ng/mL) [4]	2	1.75	11.7	3.52	28.1
KHYG-1 (IL-2 2.5 ng/mL) [5]	24.8	-7.14	-0.73	-1.75	15.3
NK-92 (IL-2 2.5 ng/mL) [6]	-0.95	-6.88	4.02	-1.88	24.8
NK-YS (IL-2 2.5 ng/mL) [7]	-5.09	-3.33	-3.78	3.59	17.6
NKL (IL-2 2.5 ng/mL) [8]	10.6	5.58	15.2	17.2	31.6
SNK-6 (IL-2 2.5 ng/mL) [9]	33.2	-24.8	-17.7	-22.5	-4.35
YT (IL-2 2.5 ng/mL) [10]	0.36	-6.16	5.94	-0.37	25
[1]	-10	-7.03	-6.98	-0.84	12.4
[11]	-9.72	5.06	-2.38	6.35	1.66
[12]	-1.3	10.6	10.3	9.07	18.9
[13]	-2.69	6.11	0.2	1.25	3.42
[14]	1.57	6.88	3.88	-4.89	-2.84

Conditions	drug sensitivity score
DERL-7 (IL-2 2.5 ng/mL) [16]	0
IMC-1 (IL-2 20 ng/mL) [17]	2.47
KAI3 (IL-2 2.5 ng/mL) [18]	1.74
KHYG-1 (IL-2 2.5 ng/mL) [19]	0.08
NK-92 (IL-2 2.5 ng/mL) [20]	0.81
NK-YS (IL-2 2.5 ng/mL) [21]	0.84
NKL (IL-2 2.5 ng/mL) [22]	4.46
SNK-6 (IL-2 2.5 ng/mL) [23]	0
YT (IL-2 2.5 ng/mL) [24]	0.93
[15]	0.04
[25]	0
[26]	1.43
[27]	0
[28]	0

COC[C@H](NC(=O)c1cnc(C)s1)C(=O)N[C@@H](COC)C(=O)N[C@@H](Cc1ccccc1)C(=O)[C@@]1(C)CO1 [Oprozomib] (max concentration tested 2500 nM)
percent inhibition of viability [%]
Conditions	0.25 nM	2.5 nM	25 nM	250 nM	2500 nM
DERL-7 (IL-2 2.5 ng/mL) [2]	-5.62	7.77	81.9	101	101
IMC-1 (IL-2 20 ng/mL) [3]	-7.29	-3.63	0.39	101	101
KAI3 (IL-2 2.5 ng/mL) [4]	-8.21	-2.86	52.1	105	108
KHYG-1 (IL-2 2.5 ng/mL) [5]	-7.33	-2.59	15.4	108	110
NK-92 (IL-2 2.5 ng/mL) [6]	-20.8	3.65	34.1	107	110
NK-YS (IL-2 2.5 ng/mL) [7]	-6.41	-1.88	43.6	106	109
NKL (IL-2 2.5 ng/mL) [8]	-18	-8.51	12.1	107	110
SNK-6 (IL-2 2.5 ng/mL) [9]	-7.89	-7.58	14.6	101	101
YT (IL-2 2.5 ng/mL) [10]	-8.11	-6.26	14.6	106	110
[1]	-1.45	0.37	40.2	101	102
[11]	-9.35	5.43	36	97.7	99.8
[12]	-25.2	0.23	62.4	92.9	97.7
[13]	-5.27	3.49	62.8	94.6	99.5
[14]	-7.05	-2.21	50.4	99	100

Conditions	drug sensitivity score
DERL-7 (IL-2 2.5 ng/mL) [16]	28.6
IMC-1 (IL-2 20 ng/mL) [17]	18.1
KAI3 (IL-2 2.5 ng/mL) [18]	24.4
KHYG-1 (IL-2 2.5 ng/mL) [19]	20.7
NK-92 (IL-2 2.5 ng/mL) [20]	22.8
NK-YS (IL-2 2.5 ng/mL) [21]	23.7
NKL (IL-2 2.5 ng/mL) [22]	20.2
SNK-6 (IL-2 2.5 ng/mL) [23]	20.4
YT (IL-2 2.5 ng/mL) [24]	20.6
[15]	23.4
[25]	22
[26]	25
[27]	25.4
[28]	24.2
